These results are taken from patent publication US20070270436A1, “NOVEL AMINO- AND IMINO-ALKYLPIPERAZINES” (Recordati Ireland Limited, priority 2006, published 2007).

The target of assay [1] is T1, human 5HT1A-serotonergic receptor (Homo sapiens, UniProt P08908).
T1 construct: expressed in transfected cells; host or cells: HeLa (human), stably transfected; membranes
T1 sequence (P08908 1-422): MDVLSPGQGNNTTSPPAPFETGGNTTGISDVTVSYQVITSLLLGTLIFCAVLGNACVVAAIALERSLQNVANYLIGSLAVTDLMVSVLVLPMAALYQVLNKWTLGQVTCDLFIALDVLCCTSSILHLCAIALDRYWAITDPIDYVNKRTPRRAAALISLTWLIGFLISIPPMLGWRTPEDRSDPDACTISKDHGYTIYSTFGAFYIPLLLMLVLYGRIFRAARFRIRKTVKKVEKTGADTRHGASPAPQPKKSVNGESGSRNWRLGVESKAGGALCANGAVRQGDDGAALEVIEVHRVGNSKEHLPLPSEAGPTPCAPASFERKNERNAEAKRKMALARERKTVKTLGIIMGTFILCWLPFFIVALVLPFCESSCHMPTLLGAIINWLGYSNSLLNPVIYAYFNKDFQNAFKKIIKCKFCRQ
As to the kind of experiment: Radioligand binding to recombinant 5-HT1A receptor ([3H]8-OH-DPAT, HeLa cell membranes). The settings on record: 1 nM [3H]8-OH-DPAT; Ki from IC50 by the Cheng equation; read-out: Ki (nM), binding affinity for 5HT1A receptor. The protocol:
Genomic clone G-21 encoding the human 5HT1A-serotonergic receptor was stably transfected in a human cell line (HeLa). HeLa cells were grown as monolayers in Dulbecco's modified Eagle medium (DMEM), containing 10% fetal bovine serum and gentamycin (100 μg/ml) at 37° C. in a humidified atmosphere of 5% CO2 and air. The cells were detached from the growth flask at 95% confluence by a cell scraper and were lysed in cold 5 mM Tris and 5 mM EDTA buffer (pH 7.4). The homogenates were centrifuged at 40000×g×20 minutes and the pellets were resuspended in a small volume of cold 5 mM Tris and 5 mM EDTA buffer (pH 7.4) and immediately frozen and stored at −70° C. until use. On the day of experiment, the cell membranes were resuspended in incubation buffer: 50 mM Tris (pH 7.4), 2.5 mM MgCl2, 10 μM pargyline (Fargin et al., Nature 335, 358-360, 1988). The membranes were incubated in a final volume of 0.32 ml for 30 minutes at 30° C. with 1 nM [^3H]8-OH-DPAT, in the absence or presence of the test compounds. Non-specific binding was determined in the presence of 10 μM 5-HT. Incubation was stopped by addition of cold Tris buffer and rapid filtration through UniFilter GF/C plate.
The affinity of the tested compounds was evaluated as inhibition of specific binding of the radioligand to 5-HT1A receptor (IC50) by using the non-linear curve-fitting program Allfit (De Lean et al., Am. J. Physiol. 235, E97-E102 (1978)). The IC50 value was converted to an affinity constant (Ki) by the equation of Cheng et al., Biochem. Pharmacol. 22, 3099-3108 (1973).

The target in assay [2] is T2, 5-HT1A receptors (Rattus norvegicus, UniProt P19327).
T2 construct: from tissue; host or cells: living male Sprague-Dawley rats (whole animal, behavioural read-out)
T2 sequence (P19327 1-422): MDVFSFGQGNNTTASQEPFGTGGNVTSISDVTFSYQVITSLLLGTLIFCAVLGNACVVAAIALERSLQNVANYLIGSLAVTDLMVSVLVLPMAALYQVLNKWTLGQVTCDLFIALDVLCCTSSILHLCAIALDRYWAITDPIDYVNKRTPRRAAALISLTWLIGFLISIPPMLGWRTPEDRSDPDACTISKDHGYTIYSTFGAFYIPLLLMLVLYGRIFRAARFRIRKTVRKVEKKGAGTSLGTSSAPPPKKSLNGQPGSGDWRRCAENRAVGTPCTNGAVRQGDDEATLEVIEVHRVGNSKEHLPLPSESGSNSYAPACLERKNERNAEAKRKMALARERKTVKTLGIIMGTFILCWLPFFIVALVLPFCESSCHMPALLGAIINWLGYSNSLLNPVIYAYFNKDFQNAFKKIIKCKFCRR
As to the kind of experiment: Inhibition of serotonergic syndrome (forepaw treading) induced by 8-OH-DPAT in rats (post-synaptic antagonism). The settings on record: rat, 10 mg/kg p.o. In kind it is in vivo. The protocol:
The inhibitory effect of 5-HT1A-receptor antagonists on stereotyped forepaw treading induced in rats by subcutaneous injection of 8-OH-DPAT was evaluated by the method of Tricklebank (Tricklebank et al., Eur. J. Pharmacol., 117: 15, 1985) with minor modifications as described below.
Male Sprague-Dawley rats [Crl: CD® (SD) IGS BR] weighing 150-175 g from Charles River Italia were used. The animals were housed with free access to food and water and maintained on a forced 12-hour-light/12-hour-dark cycle at 22-24° C. of temperature. On the day of the experiment, the rats were placed singly in clear plastic containers, 10-15 minutes before oral administration of the vehicle or compounds to be tested. For evaluation of antagonistic activity, the compounds were administered 1 and 4 hours before induction of stereotypy by 8-OH-DPAT (1 mg/kg subcutaneously). Observation sessions lasted 30 seconds and began 3 minutes after 8-OH-DPAT treatment and were repeated every 3 minutes over a period of 15 minutes.
The appearance of the symptoms induced by postsynaptic stimulation of 5-HT1A receptors was noted, and the intensity was scored using an intensity scale in which: 0=absent, 1=equivocal, 2=present and 3=intense. Behavioural scores for treated rats were accumulated throughout the observation time (5 observation periods) and expressed as mean values of 4 rats/dose. Change in mean values of treated animals in comparison with control (vehicle) group, expressed as per-cent inhibition, was used to quantify the antagonistic activity.
In order to quantitate the potency of the compound of Example 24 in inhibiting the stereotypy (forepaw treading) induced by 8-OH-DPAT, an ED50 value (dose inhibiting by 50% the forepaw treading) was evaluated by means of linear regression using the least square method.

Where [3] appears, read: 1 h before 8-OH-DPAT 1 mg/kg s.c., read-out: % Inhibition of forepaw treading, 1 h.
[4] abbreviates: 4 h before 8-OH-DPAT 1 mg/kg s.c., read-out: % Inhibition of forepaw treading, 4 h.

Like-named read-outs stand apart in the source and are kept apart here.

In general, Ki refers to a dissociation constant, usually derived from enzyme kinetics or from competition with a known ligand. In general, inhibition refers to the share of the control response that was lost under treatment. Turning to `COc1ccccc1N1CCN(CC[C@@H](c2ccccc2F)[C@H](NC(=O)N(C)C)C2CCCCC2)CC1` (racemic) [Example 21, 3-{(RS,SR)-1-Cyclohexyl-2-(2-fluorophenyl)-4-[4-(2-methoxyphenyl)-piperazin-1-yl]butyl}-1,1-dimethylurea], in assay [1], the inhibition constant Ki stood at 2.1 nM. Further, the inhibition at 10 mg/kg worked out at 94% in assay [2] (setting [3]) and 65% in assay [2] (setting [4]).

In the case of `CON[C@H](C1CCCCC1)[C@H](CCN1CCN(c2ccccc2OC)CC1)c1ccccc1F` (racemic) [Example 4b, (RS,RS)-N-{1-Cyclohexyl-2-(2-fluorophenyl)-4-[4-(2-methoxyphenyl)piperazin-1-yl]butyl}-O-methylhydroxylamine], the inhibition at 10 mg/kg came to 71% in assay [2] (setting [3]) and 67% in assay [2] (setting [4]).

With `COc1ccccc1N1CCN(CCC(C(=NO)C2CCCCC2)c2ccccc2F)CC1` (mixture of isomers) [Example 1, 1-Cyclohexyl-2-(2-fluorophenyl)-4-[4-(2-methoxyphenyl)-piperazin-1-yl]butan-1-one oxime], the Ki in assay [1] amounted to 0.16 nM. In addition, the inhibition at 10 mg/kg in assay [2] (setting [3]) came to 71%.

For the compound `COc1ccccc1N1CCN(CC[C@H](c2ccccc2F)[C@H](NC(C)=O)C2CCCCC2)CC1` (racemic) [Example 9, N-{(RS,RS)-1-Cyclohexyl-2-(2-fluorophenyl)-4-[4-(2-methoxyphenyl)-piperazin-1-yl]butyl}acetamide], the Ki in assay [1] was found to be 1.4 nM.

Turning to `COc1ccccc1N1CCN(CC[C@H](c2ccccc2F)[C@@H](N)C2CCCCC2)CC1` (single isomer, unassigned) [Example 5aB, (1S,2R) or (1R,2S)-1-Cyclohexyl-2-(2-fluorophenyl)-4-[4-(2-methoxyphenyl)piperazin-1-yl]butylamine], the inhibitory constant (Ki) in assay [1] was 1.2 nM.

Take `COc1ccc(Br)c(CN2CCN(CCC(c3ccccc3F)C(C3CCCCC3)N(C)C(C)=O)CC2)c1` (stereo not shown) [Example 46, N-[4-[4-(2-Bromo-5-methoxybenzyl)piperazin-1-yl]-1-cyclohexyl-2-(2-fluorophenyl)butyl]-N-methylacetamide]: the Ki in assay [1] came out at 0.8 nM.

Consider `CONC(C1CCCCC1)C(CCN1CCN(c2ccccc2OC)CC1)c1ccccc1F` (mixture of isomers) [Example 4, N-{1-Cyclohexyl-2-(2-fluorophenyl)-4-[4-(2-methoxyphenyl)piperazin-1-yl]butyl}-O-methylhydroxylamine], for which the inhibition constant (Ki) in assay [1] came to 0.88 nM. The inhibition at 10 mg/kg came to 86% in assay [2] (setting [3]) and 68% in assay [2] (setting [4]).

For the compound `CNC(C1CCCCC1)C(CCN1CCN(c2cccc3c2OCCO3)CC1)c1ccccc1F` (stereo not shown) [Example 39, 1-Cyclohexyl-4-[4-(2,3-dihydrobenzo[1,4]dioxin-5-yl)piperazin-1-yl]-2-(2-fluorophenyl)butylmethylamine], the Ki in assay [1] came to 0.3 nM.

In the case of `COc1ccccc1N1CCN(CCC(c2ccccc2F)C(NC=O)C2CCCCC2)CC1` (stereo not shown) [Example 6, N-{1-Cyclohexyl-2-(2-fluorophenyl)-4-[4-(2-methoxyphenyl)-piperazin-1-yl]butyl}formamide], the Ki in assay [1] worked out at 1.2 nM.

`COc1ccccc1N1CCN(CC[C@@H](c2ccccc2F)[C@H](NC(C)C)C2CCCCC2)CC1` (racemic) [Example 12, (RS,SR)-{1-Cyclohexyl-2-(2-fluorophenyl)-4-[4-(2-methoxyphenyl)-piperazin-1-yl]butyl}isopropylamine]: in assay [1], the inhibition constant (Ki) is 0.99 nM.

For `CO/N=C(\C1CCCCC1)C(CCN1CCN(c2cccc3c2OCCO3)CC1)c1ccccc1C#N` (racemic) [Example 26, (R,S)-2-{1′-{Cyclohexyl-[(E)-methoxyimino]methyl}-3-[4-(2,3-dihydrobenzo[1,4]dioxin-5-yl)-piperazin-1-yl]propyl}benzonitrile], in assay [1], the Ki came to 0.38 nM.

Regarding `COc1ccccc1N1CCN(CC[C@H](c2ccccc2F)[C@@H](NC(=S)N(C)C)C2CCCCC2)CC1` (single isomer, unassigned) [Example 24B, 3-{(1S,2R) or (1R,2S)-1-Cyclohexyl-2-(2-fluorophenyl)-4-[4-(2-methoxyphenyl)piperazin-1-yl]butyl}-1,1-dimethylthiourea], the Ki in assay [1] amounted to 4.2 nM.

Turning to `COc1ccccc1N1CCN(CC[C@@H](c2ccccc2F)[C@@H](C2CCCCC2)N(C)C)CC1` (racemic) [Example 11, {(RS,SR)-1-Cyclohexyl-2-(2-fluorophenyl)-4-[4-(2-methoxyphenyl)-piperazin-1-yl]butyl}dimethylamine], the Ki in assay [1] is 1 nM. For the same compound, the inhibition at 10 mg/kg in assay [2] (setting [3]) and in assay [2] (setting [4]) was 56% in each case.

For `O=CNC(C1CCCCC1)C(CCN1CCN(c2cccc3c2OCCO3)CC1)c1ccccc1F` (stereo not shown) [Example 37, N-[1-Cyclohexyl-4-[4-(2,3-dihydrobenzo[1,4]dioxin-5-yl)piperazin-1-yl]-2-(2-fluorophenyl)butyl]formamide], the Ki in assay [1] turned out to be 0.8 nM.
